Experimental data: PubChem BioAssay AID1259407 (Chemical Carcinogenesis Research Information System (CCRIS), 2018)
Activity calls are given as the source filed them. No rule for the calls is given here.

Test system: CCRIS mutagenicity, Ames/micronucleus/aberration tests
Assay: CCRIS mutagenicity studies
[1] = Test System: AMES SALMONELLA TYPHIMURIUM, Strain/Indicator: TA98, Metabolic Activation: NONE, Method: STANDARD PLATE
[2] = Test System: AMES SALMONELLA TYPHIMURIUM, Strain/Indicator: TA100, Metabolic Activation: NONE, Method: STANDARD PLATE
[3] = Test System: AMES SALMONELLA TYPHIMURIUM, Strain/Indicator: TA1535, Metabolic Activation: NONE, Method: PREINCUBATION
[4] = Test System: AMES SALMONELLA TYPHIMURIUM, Strain/Indicator: TA98, Metabolic Activation: NONE, Method: PREINCUBATION
[5] = Test System: AMES SALMONELLA TYPHIMURIUM, Strain/Indicator: TA100, Metabolic Activation: NONE, Method: PREINCUBATION

CCN(CC)c1ccc2nc3ccc(=[N+](CC)CC)cc-3oc2c1
mutagenic call (Test System: AMES SALMONELLA TYPHIMURIUM, Strain/Indicator: TA98, Metabolic Activation: HAMSTER, LIVER, S-9, AROCLOR 1254 (10%), Method: STANDARD PLATE): inactive; negative
mutagenic call [1]: active; positive
mutagenic call (Test System: AMES SALMONELLA TYPHIMURIUM, Strain/Indicator: TA98, Metabolic Activation: RAT, LIVER, S-9, AROCLOR 1254 (10%), Method: STANDARD PLATE): inactive; negative
mutagenic call (Test System: AMES SALMONELLA TYPHIMURIUM, Strain/Indicator: TA100, Metabolic Activation: HAMSTER, LIVER, S-9, AROCLOR 1254 (10%), Method: STANDARD PLATE): inactive; negative
mutagenic call [2]: inactive; negative
mutagenic call (Test System: AMES SALMONELLA TYPHIMURIUM, Strain/Indicator: TA100, Metabolic Activation: RAT, LIVER, S-9, AROCLOR 1254 (10%), Method: STANDARD PLATE): inactive; negative
mutagenic call (Test System: Ames Salmonella typhimurium, Strain/Indicator: TA98, Metabolic Activation: None, Method: Preincubation): inactive; negative
mutagenic call (Test System: Ames Salmonella typhimurium, Strain/Indicator: TA98, Metabolic Activation: Rat, Liver, S-9, Aroclor 1254, Method: Preincubation): inactive; negative
mutagenic call (Test System: Ames Salmonella typhimurium, Strain/Indicator: TA100, Metabolic Activation: None, Method: Preincubation): inactive; negative
mutagenic call (Test System: Ames Salmonella typhimurium, Strain/Indicator: TA100, Metabolic Activation: Rat, Liver, S-9, Aroclor 1254, Method: Preincubation): inactive; negative
mutagenic call (Test System: Ames Salmonella typhimurium, Strain/Indicator: TA102, Metabolic Activation: None, Method: Preincubation): inactive; negative
mutagenic call (Test System: Ames Salmonella typhimurium, Strain/Indicator: TA102, Metabolic Activation: Rat, Liver, S-9, Aroclor 1254, Method: Preincubation): inactive; negative
mutagenic call (Test System: Ames Salmonella typhimurium, Strain/Indicator: TA1535, Metabolic Activation: None, Method: Preincubation): inactive; negative
mutagenic call (Test System: Ames Salmonella typhimurium, Strain/Indicator: TA1535, Metabolic Activation: Rat, Liver, S-9, Aroclor 1254, Method: Preincubation): inactive; negative
mutagenic call (Test System: MOUSE LYMPHOMA, Strain/Indicator: L5178Y (TK+/TK-), Metabolic Activation: NONE, Method: SUSPENSION/PLATE): active; positive. reevaluation of results: positive
mutagenic call (Test System: MOUSE LYMPHOMA, Strain/Indicator: L5178Y (TK+/TK-), Metabolic Activation: RAT, LIVER, S-9, AROCLOR 1254, Method: SUSPENSION/PLATE): active; positive. reevaluation of results: positive

Nc1ccc2c(N)c3ccccc3nc2c1
mutagenic call [3]: inactive; negative
mutagenic call (Test System: AMES SALMONELLA TYPHIMURIUM, Strain/Indicator: TA1535, Metabolic Activation: RAT, LIVER, S-9, TETRACHLOROBIPHENYL, Method: PREINCUBATION): inactive; negative
mutagenic call (Test System: AMES SALMONELLA TYPHIMURIUM, Strain/Indicator: TA1537, Metabolic Activation: NONE, Method: PREINCUBATION): active; positive
mutagenic call (Test System: AMES SALMONELLA TYPHIMURIUM, Strain/Indicator: TA1537, Metabolic Activation: RAT, LIVER, S-9, TETRACHLOROBIPHENYL, Method: PREINCUBATION): active; positive
mutagenic call (Test System: AMES SALMONELLA TYPHIMURIUM, Strain/Indicator: TA1538, Metabolic Activation: NONE, Method: PREINCUBATION): active; positive
mutagenic call (Test System: AMES SALMONELLA TYPHIMURIUM, Strain/Indicator: TA1538, Metabolic Activation: RAT, LIVER, S-9, TETRACHLOROBIPHENYL, Method: PREINCUBATION): active; positive
mutagenic call (Test System: AMES SALMONELLA TYPHIMURIUM, Strain/Indicator: TA1977, Metabolic Activation: NONE, Method: PREINCUBATION): active; positive
mutagenic call (Test System: AMES SALMONELLA TYPHIMURIUM, Strain/Indicator: TA1977, Metabolic Activation: RAT, LIVER, S-9, TETRACHLOROBIPHENYL, Method: PREINCUBATION): active; positive
mutagenic call (Test System: AMES SALMONELLA TYPHIMURIUM, Strain/Indicator: TA1978, Metabolic Activation: NONE, Method: PREINCUBATION): inactive; negative
mutagenic call (Test System: AMES SALMONELLA TYPHIMURIUM, Strain/Indicator: TA1978, Metabolic Activation: RAT, LIVER, S-9, TETRACHLOROBIPHENYL, Method: PREINCUBATION): inactive; negative

Nc1ccc(Br)cc1
mutagenic call (End Point: IN VITRO MICRONUCLEUS, Test System: CHL/IU CELLS, Metabolic Activation: RAT, LIVER, S-9, PHENOBARBITAL AND 5,6-BENZOFLAVONE): active; positive
mutagenic call (Test System: AMES SALMONELLA TYPHIMURIUM, Strain/Indicator: TA97, Metabolic Activation: HAMSTER, LIVER, S-9, AROCLOR 1254 (10%), Method: PREINCUBATION): inactive; negative
mutagenic call (Test System: AMES SALMONELLA TYPHIMURIUM, Strain/Indicator: TA97, Metabolic Activation: HAMSTER, LIVER, S-9, AROCLOR 1254 (30%), Method: PREINCUBATION): inactive; negative
mutagenic call (Test System: AMES SALMONELLA TYPHIMURIUM, Strain/Indicator: TA97, Metabolic Activation: NONE, Method: PREINCUBATION): inactive; negative
mutagenic call (Test System: AMES SALMONELLA TYPHIMURIUM, Strain/Indicator: TA97, Metabolic Activation: RAT, LIVER, S-9, AROCLOR 1254 (10%), Method: PREINCUBATION): inactive; negative
mutagenic call (Test System: AMES SALMONELLA TYPHIMURIUM, Strain/Indicator: TA97, Metabolic Activation: RAT, LIVER, S-9, AROCLOR 1254 (30%), Method: PREINCUBATION): inactive; negative
mutagenic call (Test System: AMES SALMONELLA TYPHIMURIUM, Strain/Indicator: TA98, Metabolic Activation: HAMSTER, LIVER, S-9, AROCLOR 1254 (10%), Method: PREINCUBATION): inactive; negative
mutagenic call (Test System: AMES SALMONELLA TYPHIMURIUM, Strain/Indicator: TA98, Metabolic Activation: HAMSTER, LIVER, S-9, AROCLOR 1254 (30%), Method: PREINCUBATION): inactive; negative
mutagenic call [4]: inactive; negative
mutagenic call (Test System: AMES SALMONELLA TYPHIMURIUM, Strain/Indicator: TA98, Metabolic Activation: RAT, LIVER, S-9, AROCLOR 1254 (10%), Method: PREINCUBATION): inactive; negative
mutagenic call (Test System: AMES SALMONELLA TYPHIMURIUM, Strain/Indicator: TA98, Metabolic Activation: RAT, LIVER, S-9, AROCLOR 1254 (30%), Method: PREINCUBATION): inactive; negative
mutagenic call (Test System: AMES SALMONELLA TYPHIMURIUM, Strain/Indicator: TA100, Metabolic Activation: HAMSTER, LIVER, S-9, AROCLOR 1254 (10%), Method: PREINCUBATION): inactive; negative
mutagenic call (Test System: AMES SALMONELLA TYPHIMURIUM, Strain/Indicator: TA100, Metabolic Activation: HAMSTER, LIVER, S-9, AROCLOR 1254 (30%), Method: PREINCUBATION): inactive; negative
mutagenic call [5]: inactive; negative
mutagenic call (Test System: AMES SALMONELLA TYPHIMURIUM, Strain/Indicator: TA100, Metabolic Activation: RAT, LIVER, S-9, AROCLOR 1254 (10%), Method: PREINCUBATION): inactive; negative
mutagenic call (Test System: AMES SALMONELLA TYPHIMURIUM, Strain/Indicator: TA100, Metabolic Activation: RAT, LIVER, S-9, AROCLOR 1254 (30%), Method: PREINCUBATION): inactive; negative
mutagenic call (Test System: AMES SALMONELLA TYPHIMURIUM, Strain/Indicator: TA1535, Metabolic Activation: HAMSTER, LIVER, S-9, AROCLOR 1254 (10%), Method: PREINCUBATION): inactive; negative
mutagenic call (Test System: AMES SALMONELLA TYPHIMURIUM, Strain/Indicator: TA1535, Metabolic Activation: HAMSTER, LIVER, S-9, AROCLOR 1254 (30%), Method: PREINCUBATION): inactive; negative
mutagenic call [3]: inactive; negative
mutagenic call (Test System: AMES SALMONELLA TYPHIMURIUM, Strain/Indicator: TA1535, Metabolic Activation: RAT, LIVER, S-9, AROCLOR 1254 (10%), Method: PREINCUBATION): inactive; negative
mutagenic call (Test System: AMES SALMONELLA TYPHIMURIUM, Strain/Indicator: TA1535, Metabolic Activation: RAT, LIVER, S-9, AROCLOR 1254 (30%), Method: PREINCUBATION): inactive; negative
mutagenic call (Test System: E. COLI, Strain/Indicator: WP2 UVRA, Metabolic Activation: NONE, Method: FLUCTUATION TEST): inactive; negative

Cc1ccc(C2CO2)cc1 (configuration not stated)
mutagenic call (Test System: E. COLI, Strain/Indicator: WP2 UVRA, Metabolic Activation: NONE, Method: STANDARD PLATE): active; positive

O[C@H]1[C@@H]2O[C@@H]2C=C[C@@H]1O
mutagenic call [4]: inactive; negative
mutagenic call [5]: inactive; negative
mutagenic call [3]: active; positive

COc1ccc2c(c1)[C@H]1CCCC[C@@H]1[C@H]1O[C@@H]21
mutagenic call [1]: inactive; negative
mutagenic call [2]: inactive; negative

OC1=C2O[C@@H]2CC[C@H]1O
mutagenic call (Test System: CHINESE HAMSTER V-79, Strain/Indicator: V-79/6-THIOGUANINE, Metabolic Activation: NONE): active; positive

CCCc1cc(=O)oc2c3c(c4c(c12)OC(C)(C)CC4)O[C@@H](C)[C@H](C)[C@@H]3O
mutagenic call (Test System: Mouse lymphoma, Strain/Indicator: L5178Y (tk+/tk-), Metabolic Activation: None, Method: Suspension/plate): inactive; negative
mutagenic call (Test System: Mouse lymphoma, Strain/Indicator: L5178Y (tk+/tk-), Metabolic Activation: Rat, Liver, S-9, Aroclor 1254, Method: Suspension/plate): inactive; negative
